Experimental data reported in patent US8101768B2, “Cyclic amine compound and pest control agent” (Nippon Soda Co., Ltd., priority 2004, dated 2012).

Tested on: organophosphorous agent resistant two-spotted spider mites
Assay: Effect on Two-spotted Spider Mite (spray on kidney bean leaves)
Type: in vivo
Conditions: 125 ppm, water dispersible powder of Formulation Example 1 sprayed, 17 female adults, 25° C., 65% humidity, 3 days
Excerpt: Effect on Two-spotted Spider Mite
17 female adults of organophosphorous agent resistant two-spotted spider mites were inoculated onto the first leaves of kidney beans seeded onto 3.5 inch pots and germinated 7 to 10 days before, onto which each of liquid agents, diluted with water so as to adjust the respective concentration of the chemical compounds to 125 ppm according to the formulation of the water dispersible powder shown in the aforementioned Formulation Example 1, was sprayed. After they were left in a thermostatic chamber at 25° C. in 65% humidity for 3 days, the rate of killed adults was investigated. The examination was repeated twice. As the results, the following chemical compounds killed 100% of the adults.

| Structure (SMILES) | rate of killed adults [%] |
| --- | --- |
| CC(C)(C)CC(O)c1cc(C(F)(F)F)ccc1O[C@@H]1[C@@H]2CC[C@H]1CN(c1ccc(C(F)(F)F)cn1)C2 (stereo partly shown) [5-255] | 100 |
| FC(F)(F)c1ccc(N2CCC(Oc3c(Cl)cc(C(F)(F)F)cc3Cl)CC2)nc1 [1-16] | 100 |
| FC(F)(F)c1ccc(N2C3CCC2CC(Oc2ccc(C(F)(F)F)cc2OCCCl)C3)nc1 (stereo not shown) [2-138] | 100 |
| CC(COc1cc(C(F)(F)F)ccc1OC1C2CCC1CN(c1ccc(C(F)(F)F)cn1)C2)=NO (stereo not shown) [5-182] | 100 |
| CC=NOc1cc(C(F)(F)F)ccc1OC1CC2CCC(C1)N2c1ccc(C(F)(F)F)cn1 (mixture of isomers) [2-213] | 100 |
| CC(C)(C)C(=O)Oc1cc(C(F)(F)F)ccc1OC1C2CCC1CN(c1ccc(C(F)(F)F)cn1)C2 (stereo not shown) [5-200] | 100 |
| CCC(C)=NOc1cc(C(F)(F)F)ccc1OC1CC2CCC(C1)N2c1ccc(C(F)(F)F)cn1 (mixture of isomers) [2-226] | 100 |
| N#Cc1cc(C(F)(F)F)ccc1O[C@@H]1[C@@H]2CC[C@H]1CN(c1ccc(C(F)(F)F)cn1)C2 [5-32] | 100 |
| FC(F)(F)c1ccc(N2CCC(Oc3ccc(Br)cc3)CC2)nc1 [1-19] | 100 |
| FC(F)(F)c1ccc(N2CC3CCC(C2)C3Oc2ccc(C(F)(F)F)cc2COC2CCOC2)nc1 (stereo not shown) [5-231] | 100 |
| CCCCOCc1cc(C(F)(F)F)ccc1OC1C2CCC1CN(c1ccc(C(F)(F)F)cn1)C2 (stereo not shown) [5-223] | 100 |
| CCS(=O)(=O)Oc1cc(C(F)(F)F)ccc1OC1CC2CCC(C1)N2c1ccc(C(F)(F)F)cn1 (stereo not shown) [2-152] | 100 |
| CCOC(C)COc1cc(C(F)(F)F)ccc1OC1CC2CCC(C1)N2c1ccc(C(F)(F)F)cn1 (stereo not shown) [2-175] | 100 |
| FC(F)(F)c1ccc(N2C3CCC2CC(Oc2ccc(C(F)(F)F)cc2OCC=CCl)C3)nc1 (mixture of isomers) [2-148] | 100 |
| FC(F)(F)c1ccc(N2C3CCC2CC(Oc2ccc(C(F)(F)F)cc2ON=C2CCCC2)C3)nc1 (stereo not shown) [2-227] | 100 |
| CC(O)COc1cc(C(F)(F)F)ccc1OC1CC2CCC(C1)N2c1ccc(C(F)(F)F)cn1 (stereo not shown) [2-173] | 100 |
| CCCOc1cc(C(F)(F)F)ccc1O[C@@H]1[C@@H]2CC[C@H]1CN(c1ccc(C(F)F)cn1)C2 [5-99] | 100 |
| CCOc1cc(C(F)(F)F)ccc1OC1CCN(c2ccc(Cl)cn2)CC1 [1-90] | 100 |
| COC(C)CCc1cc(C(F)(F)F)ccc1OC1CC2CCC(C1)N2c1ccc(C(F)(F)F)cn1 (stereo not shown) [2-192] | 100 |
| C=CC(C)OC(=O)c1cc(C(F)(F)F)ccc1OC1CC2CCC(C1)[N+]2([O-])c1ccc(C(F)(F)F)cn1 (stereo not shown) [2-247] | 100 |
| CCCOc1cc(C(F)(F)F)ccc1OC1CC2CCC(C1)N2c1ccc(C#N)cn1 (stereo not shown) [2-93] | 100 |
| CCC(=O)Oc1cc(C(F)(F)F)ccc1OC1C2CCC1CN(c1ccc(C(F)(F)F)cn1)C2 (stereo not shown) [5-198] | 100 |
| O=C(OCC(F)(F)F)c1cc(C(F)(F)F)ccc1OC1CC2CCC(C1)N2c1ccc(C(F)(F)F)cn1 (stereo not shown) [2-240] | 100 |
| COCCOC(=O)c1cc(C(F)(F)F)ccc1OC1CC2CCC(C1)N2c1ccc(C(F)(F)F)cn1 (stereo not shown) [2-230] | 100 |
| CCCOc1cc(C(F)(F)F)ccc1OC1CC2CCC(C1)[N+]2([O-])c1ccc(C(F)(F)F)cn1 (stereo not drawn) [2-84, 3α-[2-propoxy-4-(trifluoromethyl)phenoxy]-8-oxy-8-[5-(trifluoromethyl)-2-pyridyl]-8-azabicyclo[3.2.1]octane] | 100 |
| CCOc1cc(C(F)(F)F)ccc1OC1CC2CCC(C1)N2c1ccc(C(F)(F)F)cn1 (stereo not shown) [2-78] | 100 |
| CC(C)(C)COc1cc(C(F)(F)F)ccc1OC1CC2CCC(C1)N2c1ccc(C(F)(F)F)cn1 (stereo not shown) [2-111] | 100 |
| CN(C)C(=O)Sc1cc(C(F)(F)F)ccc1OC1CC2CCC(C1)N2c1ccc(C(F)(F)F)cn1 (stereo not shown) [2-157] | 100 |
